In paper PMC5633740, “Identification of YfiH and the Catalase CatA As Polyphenol Oxidases of Aeromonas media and CatA as a Regulator of Pigmentation by Its Peroxyl Radical Scavenging Capacity” (Frontiers in Microbiology, 2017):

Molecular target: T1, CatA (PPO2; catalase; His6-tagged CatA) (Aeromonas media, UniProt A0AAE7AJ24)
T1 construct: gene E4188_09760; full ORF (1,449 bp) in pET-26b(+) NdeI/XhoI, His6-tagged, expressed in E. coli BL21(DE3), Ni-NTA; 55 kDa peak by gel filtration
Assay: native-PAGE activity staining of purified protein
Type: biochemical
Conditions: 5 mM L-DOPA, 50 mM Tris-HCl pH 8.0, 30 °C, 30 min; qualitative

T1 sequence (A0AAE7AJ24 entry or part of it): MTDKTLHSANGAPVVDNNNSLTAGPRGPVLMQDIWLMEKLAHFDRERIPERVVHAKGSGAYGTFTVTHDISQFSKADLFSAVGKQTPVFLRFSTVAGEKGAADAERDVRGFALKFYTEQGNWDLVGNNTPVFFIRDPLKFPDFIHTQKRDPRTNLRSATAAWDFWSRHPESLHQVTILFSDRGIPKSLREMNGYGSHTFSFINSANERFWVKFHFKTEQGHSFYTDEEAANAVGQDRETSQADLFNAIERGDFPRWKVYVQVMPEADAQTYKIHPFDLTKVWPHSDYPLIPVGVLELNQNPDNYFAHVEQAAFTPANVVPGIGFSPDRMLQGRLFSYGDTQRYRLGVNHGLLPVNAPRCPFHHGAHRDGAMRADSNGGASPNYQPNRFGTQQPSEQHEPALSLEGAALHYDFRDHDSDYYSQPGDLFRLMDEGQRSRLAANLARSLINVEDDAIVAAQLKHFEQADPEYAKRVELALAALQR

With `N[C@@H](Cc1ccc(O)c(O)c1)C(=O)O` [L-DOPA, L-3,4-dihydroxyphenylalanine] the “native-PAGE activity staining of purified protein” value was “All His6-tagged proteins exhibited both catalase and PPO activity”.
